Data on seven compounds can be found in patent US20250122173A1, “MODULATORS OF RHO-ASSOCIATED PROTEIN KINASE” (Redx Pharma Limited, priority 2022, published 2025).

One assay deals with T1, ROCK2 (Homo sapiens, UniProt O75116).
T1 construct: N-terminal 6His-tagged ROCK2 catalytic domain 11-552; 6His (N); purchased Dundee University, UK; host or cells: baculovirus expression system
In words: ROCK2 inhibition assay (ADP-Glo kinase assay, called ROCK2 binding activity). The class given is biochemical. The note with it: 20 μM ATP, 1 hour pre-incubation, read-out: ROCK 2 (IC50 category). A digest of the protocol:
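N-terminal 6His ROCK2 catalytic domain (11-552, baculovirus-expressed; 1.25 nM) was pre-incubated with compound for 1 h (1% DMSO, HEPES pH 7.5). Reaction then ran 1 h with 100 μM long S6 peptide and 20 μM ATP. ADP was quantified by ADP-Glo luminescence, and IC50 was derived from a four-parameter logistic fit and reported in potency bins.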

The target of another assay is ROCK1 (Homo sapiens, UniProt Q13464). Nature of the assay: ROCK1 inhibition assay (ROCK1 binding activity, as determined by the assay described for ROCK2). It counts as biochemical. The note with it: read-out: ROCK 1 (IC50 category). A digest of the protocol: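 Run under the conditions used for ROCK2: 1 h compound–kinase preincubation, then 1 h reaction with 100 μM long S6 peptide and 20 μM ATP in 50 mM HEPES pH 7.5, 1% DMSO. ADP quantified by ADP-Glo luminescence; IC50 from four-parameter logistic fit, reported in potency categories.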

Molecules are shown by their SMILES.

T1 sequence (O75116 11-552): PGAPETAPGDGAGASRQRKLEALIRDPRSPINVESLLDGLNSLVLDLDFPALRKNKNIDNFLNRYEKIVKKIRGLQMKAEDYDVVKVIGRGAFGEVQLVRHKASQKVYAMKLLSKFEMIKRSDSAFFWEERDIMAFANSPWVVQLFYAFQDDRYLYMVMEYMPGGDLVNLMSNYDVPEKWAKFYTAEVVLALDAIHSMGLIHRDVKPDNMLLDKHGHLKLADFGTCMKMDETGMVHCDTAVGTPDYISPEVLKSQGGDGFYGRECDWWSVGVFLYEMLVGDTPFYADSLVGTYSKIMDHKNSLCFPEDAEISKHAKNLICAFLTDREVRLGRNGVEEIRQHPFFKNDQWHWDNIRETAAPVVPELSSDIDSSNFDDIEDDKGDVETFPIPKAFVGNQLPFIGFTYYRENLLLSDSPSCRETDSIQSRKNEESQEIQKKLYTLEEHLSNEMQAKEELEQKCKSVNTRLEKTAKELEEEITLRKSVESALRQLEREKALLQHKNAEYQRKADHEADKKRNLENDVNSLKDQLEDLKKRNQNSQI
Sequence of ROCK1 (Q13464 whole entry): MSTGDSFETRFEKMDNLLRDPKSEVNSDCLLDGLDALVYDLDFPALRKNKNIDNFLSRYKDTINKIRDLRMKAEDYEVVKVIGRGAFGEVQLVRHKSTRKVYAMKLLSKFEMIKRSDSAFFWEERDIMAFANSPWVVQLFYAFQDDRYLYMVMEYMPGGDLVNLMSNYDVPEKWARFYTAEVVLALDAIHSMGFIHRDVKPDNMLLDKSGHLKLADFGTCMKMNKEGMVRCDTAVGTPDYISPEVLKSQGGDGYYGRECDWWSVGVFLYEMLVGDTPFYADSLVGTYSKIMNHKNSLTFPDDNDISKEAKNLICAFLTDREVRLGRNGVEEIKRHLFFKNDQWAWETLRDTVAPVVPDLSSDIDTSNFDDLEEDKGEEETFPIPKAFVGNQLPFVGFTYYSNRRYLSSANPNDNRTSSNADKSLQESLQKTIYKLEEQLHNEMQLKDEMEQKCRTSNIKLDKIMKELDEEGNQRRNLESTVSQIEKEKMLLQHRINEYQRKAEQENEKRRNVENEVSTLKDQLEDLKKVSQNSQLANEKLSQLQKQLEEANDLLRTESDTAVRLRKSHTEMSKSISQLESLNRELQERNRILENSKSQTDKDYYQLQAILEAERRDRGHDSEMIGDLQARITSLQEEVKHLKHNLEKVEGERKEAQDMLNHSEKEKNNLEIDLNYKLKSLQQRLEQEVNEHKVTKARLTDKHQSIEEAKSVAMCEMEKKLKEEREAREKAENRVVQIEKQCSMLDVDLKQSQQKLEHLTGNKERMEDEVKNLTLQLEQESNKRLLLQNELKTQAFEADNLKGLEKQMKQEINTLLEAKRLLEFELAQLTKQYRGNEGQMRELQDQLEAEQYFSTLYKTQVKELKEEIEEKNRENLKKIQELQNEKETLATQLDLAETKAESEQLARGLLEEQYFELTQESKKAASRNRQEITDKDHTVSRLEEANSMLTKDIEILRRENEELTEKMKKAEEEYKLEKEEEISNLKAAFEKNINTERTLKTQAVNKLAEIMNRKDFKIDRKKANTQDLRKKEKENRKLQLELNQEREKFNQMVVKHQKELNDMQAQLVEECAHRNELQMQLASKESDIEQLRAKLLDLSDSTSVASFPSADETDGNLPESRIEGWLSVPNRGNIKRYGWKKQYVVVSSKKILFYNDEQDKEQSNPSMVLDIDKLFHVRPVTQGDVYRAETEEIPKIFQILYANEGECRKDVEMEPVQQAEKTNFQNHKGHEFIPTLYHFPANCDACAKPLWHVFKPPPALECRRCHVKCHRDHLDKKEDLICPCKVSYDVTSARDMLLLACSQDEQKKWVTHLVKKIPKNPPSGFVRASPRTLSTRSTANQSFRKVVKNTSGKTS

With `CCn1nc(-c2ccc(-c3ccc(C(C)(C)O)nc3)cc2)nc1Nc1cc2c(cc1C)C(=O)NC2C` (centres unmarked) [Example 157], the figures for the concentration for half-maximal inhibition (IC50) at ROCK2 and at ROCK1 were less than 0.3 µM and 0.3 to 3 µM, respectively.

On to `CCn1nc(-c2ccc(-n3cnc(C4CC4)c3)cc2C)nc1Nc1cc2c(cc1C)C(=O)N[C@@H]2C` [Example 158], for which the IC50 is less than 0.3 µM at ROCK2 and 3 to 10 µM on ROCK1.

For the compound `CCn1nc(-c2ccc(-n3cnc(C4CC4)c3)cc2C)nc1Nc1cc2c(cc1C)C(=O)N[C@H]2C` [Example 159], the concentration for half-maximal inhibition (IC50) on ROCK2 was less than 0.3 µM; at ROCK1, 0.3 to 3 µM.

For `CCn1nc(-c2ccc(-c3ccc(C4CC4)nc3)cc2)nc1Nc1cc2c(cc1F)C(=O)N[C@@H]2C` [Example 160], the IC50 was less than 0.3 µM at ROCK2 and 3 to 10 µM at ROCK1.

Turning to `CCn1nc(-c2ccc(-c3ccc(C4CC4)nc3)cc2)nc1Nc1cc2c(cc1F)C(=O)N[C@H]2C` [Example 161], the figures for the concentration for half-maximal inhibition (IC50) at ROCK2 and at ROCK1 were less than 0.3 µM and 3 to 10 µM, respectively.

Regarding `CCn1nc(-c2ccc(-c3cnn(CC(F)(F)F)c3)cc2)nc1Nc1cc2c(cc1C)C(=O)N[C@H]2C` [Example 162], the figures for the IC50 on ROCK2 and on ROCK1 were less than 0.3 µM and 3 to 10 µM, respectively.

With `CCn1nc(-c2ccc(-c3cnn(CC(F)(F)F)c3)cc2)nc1Nc1cc2c(cc1C)C(=O)N[C@@H]2C` [Example 163], the half-inhibitory concentration (IC50) at ROCK2 is less than 0.3 µM; on ROCK1 it was 0.3 to 3 µM.
